Assay results: patent US7259146B2, “Neuroprotective peptides” (Ortho-McNeil Pharmaceutical, Inc., priority 2000, dated 2007)

Key:
[1] = test system: rat hippocampal cultures; assay: Neurite outgrowth assay (MAP2-FITC immunofluorescence), hippocampal cultures; format: cell-based; conditions: for overall neurite outgrowth response, hippocampal versus cortical cultures: comparison of hippocampal and cortical cultures; for dose-response profile: 10 fM-10 nM
From the text: (§1) Dissociated hippocampal and cortical cell cultures were established from embryonic day 18 rat fetuses as previously described (Mattson et al., 1994). Briefly, fetuses were removed via cesarean section from pregnant moms (Sprague-Dawley) anesthetized with halothane according to the AVMA Panel on Euthanasia. Pups were decapitated and the brains were removed and placed in HEPES-buffered Hank's Balanced Salt solution (HBSS; Gibco). The hippocampi and cortices were dissected out and pooled according to tissue-type. Tissue was trypsinized for 15 min (1 mg/ml trypsin-HBSS; Worthington), rinsed with fresh HBSS, incubated in trypsin inhibitor (1 mg/ml; Sigma) for 5 min, rinsed again with fresh HBSS and then triturated in 1 ml fresh HBSS with a fire-polished glass pipette. Dissociated cells were seeded at 30,000 cells/well onto poly-D-lysine coated 96-well plates (Collaborative BioScience). Each well contained 100 μl of Eagle's Minimal Essential Media (MEM; Gibco) supplemented with 26 mM NaHCO3 (Sigma), 56 mM glucose (Sigma), 15 mM KCl (Sigma), 1 mM sodium pyruvate (Sigma), 1.1 mM L-glutamine (Sigma), 10% (v/v) heat-inactivated fetal bovine serum (Hyclone), and 0.001% gentamicin sulfate (Sigma) (pH 7.4). Cells were allowed to attach for 24 h in a humidified 37° C. 5% CO2 incubator before experimental treatment. The culture media was aspirated and exchanged with fresh media every three days.
(§2) Twenty-four hours after plating, cultures were treated with vehicle (PBS+0.1% BSA), 100 ng of various growth factors (brain derived neurotrophic factor (BDNF; Promega), glial-derived neurotrophic factor (GDNF; Promega), nerve growth factor (NGF; Boehringer Mannheim), basic fibroblast growth factor (bFGF; Boehringer Mannheim), insulin-like growth factor-1 (IGF-1; Boehringer Mannheim), neurotrophin-3 (NT3; Calbiochem), neurotrophin-4 (NT4; Calbiochem), ciliary neurotrophic factor (CNTF; Calbiochem), epidermal growth factor (EGF; Calbiochem), vascular endothelial growth factor (VEGF; Calbiochem)), or rhEPO (prepared same as above; 10 fM-10 nM)). Each treatment condition was run in quadruplicate or octuplicate. On the third day in culture, the media was aspirated off and replaced with fresh media and test compound. At one week in culture, the cells were fixed with 10% phosphate-buffered formalin for 15 min, then rinsed with DPBS (Sigma) and placed in blocking serum for 30 min (horse serum; 1:50 dilution in DPBS; Vector Labs). Cultures were rinsed again with DPBS and then incubated in primary antibody for 2 hr (microtubule-associated protein-2 (MAP-2) is a selective marker for dendritic processes; anti-mouse monoclonal (Chemicon); 1:1000 dilution of MAP-2 in antibody diluent (Zymed)). Negative control wells were incubated in antibody diluent alone. Background signal was determined by blank wells (cell-free) incubated with or without antibody. Cultures were rinsed again with DPBS and then placed in fluorescein for 1 hr (FITC; anti-mouse IgG; rat adsorbed; 1:50 dilution in DPBS; Vector Labs). Cultures were rinsed a final time with DPBS and then the plates were read on a Cytofluor 4000 fluorescence plate reader. Neurite outgrowth was expressed as percent change from control (vehicle; mean fluorescence±SD).
(§3) Dissociated hippocampal and cortical cell cultures were established from embryonic day 18 rat fetuses as previously described (Mattson et al., 1994). Briefly, fetuses were removed via cesarean section from pregnant moms (Sprague-Dawley) anesthetized with halothane according to the AVMA Panel on Euthanasia. Pups were decapitated and the brains were removed and placed in HEPES-buffered Hank's Balanced Salt solution (HBSS; Gibco). The hippocampi and cortices were dissected out and pooled according to tissue-type. […]

[2] = test system: rat cerebral cortical cultures; assay: Neurite outgrowth assay (MAP2-FITC immunofluorescence), cortical cultures; format: cell-based; conditions: for dose-response profile: 10 fM-10 nM
From the text: as §1, §2, §3

| Sequence | overall neurite outgrowth response, hippocampal versus cortical cultures [1] | neurite outgrowth (in words) ([1]; hippocampal cultures) | dose-response profile ([1]; hippocampal cultures) | neurite outgrowth (in words) [2] | dose-response profile [2] | neurite outgrowth at peak activity, increase over vehicle ([1]; hippocampal cultures, EMP 10 fM-10 nM, one week in culture) |
| --- | --- | --- | --- | --- | --- | --- |
| GGTASCHFGPLTWVCKPQGG [EMP-6] | robust neurite outgrowth activity in both hippocampal and cortical cultures | promotes neurite outgrowth | typical bell-shaped dose-response profiles | promotes neurite outgrowth | typical bell-shaped dose-response profiles |  |
| GGTYSCFGPLTWVCKPQGG [EMP-27] | less impressive overall | promotes neurite outgrowth | flat response profile | promotes neurite outgrowth | flat response overall |  |
| GGTYSCHFAPLTWVCKPQGG [EMP-9] | less impressive overall | promotes neurite outgrowth | flat response profile | promotes neurite outgrowth | flat response overall |  |
| GGTYSCHFGPLTWVCKPQGG [EMP-1] | selective effects in hippocampal cultures over cortical cultures | promotes neurite outgrowth | typical bell-shaped dose-response profiles | promotes neurite outgrowth | flat response overall |  |
| YCHFGPLTWVC [EMP-23] | effects were greater in cortical cultures than hippocampal cells | promotes neurite outgrowth | modest response | promotes neurite outgrowth | typical bell-shaped dose-response profiles | 43–46% |
